Experiments:
Type in all cases: cell-based
[1] = test system: HCT116 colorectal cancer cells; assay: Western blot of ERK/JNK activation (pERK, pJNK) in HCT116 cells; details: stably transfected HCT116, 20 μM SB328437 (FIG. 7B)
Description: To explore the role of CCL7 signaling and CCR3 in the EMT-related pathway, activation of ERK and JNK was measured. HCT116 colorectal cancer cells were transiently transfected with siRNA against CCL7 or stably transfected with GFP (control) or CCL7. The stably transfected cells were incubated in the presence or absence of 20 μM SB328437. Cell lysates were obtained as above and assayed via Western blot analysis for pERK, total ERK, pJNK, total JNK, and β-actin.

[2] = test system: HCT116 colorectal cancer cells; assay: Western blot of EMT markers and CCR3 in HCT116 cells; details: HCT116 cells stably transfected with GFP or CCL7, with or without SB328437; Western blot (FIG. 5D)
Description: For the Western blot, lysates from transfected HCT116 cells were obtained using Pro-prep buffer (Intron Biotechnology, Seoul, Korea), including protease inhibitors. 20-60 μg the protein extract was resolved by SDS-PAGE and transferred to polyvinylidene fluoride (PVDF) membranes and probed with antibodies against CCR1, CCR2, CCR3, CCR5, CCL7, and β-actin, as a loading control. Secondary antibodies conjugated to horseradish peroxidase were used to image the membrane.
HCT116 colorectal cancer cells were transfected with siRNA to lower expression of the CCL7 gene, and protein expression of CCL7, E-cadherin, Snail, vimentin, twist, and β-actin, as a loading control, was determined by Western blot analysis.
HCT116 colorectal cancer cells were also treated with anti-CCL7 antibodies and the CCR3 expression in cell extracts was determined via Western blot analysis.
HCT116 colorectal cancer cells were stably transfected with GFP (control) or CCL7 and the expression of E-cadherin, α-SMA, vimentin, twist, and β-actin, as a loading control, was determined via Western blot analysis.

[3] = test system: HCT116 colorectal cancer cells; assay: Transwell migration and matrigel invasion assay of HCT116 cells; details: GFP and CCL7 transfected HCT116 treated with SB328437 (FIG. 6C)
Description: To explore the role of CCL7 on migration and invasion of cancer cells, HCT116 colorectal cancer cells were transiently transfected with siRNA to the CCL7 gene or stably transfected with GFP (control) or CCL7. The cells (5×10^4) were loaded into the migration and invasion chambers in a 24-well plate in serum-free RPMI media. The lower chambers were supplemented with 10% FBS and the cells were incubated for 24 or 48 hours. The cells were stained with calcein or hematoxylin-eosin and mounted. Cell migration and invasion was quantified via fluorescence.

## COC(=O)[C@H](Cc1ccc([N+](=O)[O-])cc1)NC(=O)c1cccc2ccccc12 [SB328437]
[1]
  phosphorylation of ERK and JNK increased by CCL7 overexpression: inhibited
[2]
  effect of CCL7 overexpression (reduced E-cadherin, increased α-SMA, vimentin, twist): blocked
[3]
  CCL7-induced migration and invasion of the colorectal cancer cells: blocked

Reference: patent US10316319B2, “Composition for diagnosis of liver metastasis of colorectal cancer and the use thereof” (SAMSUNG LIFE PUBLIC WELFARE FOUNDATION, priority 2010, dated 2019)
